Results reported in article PMC4535766, “Antiprotozoal Activity Profiling of Approved Drugs: A Starting Point toward Drug Repositioning” (PLoS ONE, 2015).
Like-named read-outs stand apart in the source and are kept apart here.

Tests used:
[1] = system: intracellular amastigotes of L. donovani strain MHOM-ET-67/L82; test: Activity against Leishmania donovani intracellular amastigotes in mouse peritoneal macrophages; conditions: Leishmania donovani, Peritoneal macrophage, in Mus musculus
Experimental: After 24 h 1.2 x 10^5 amastigote L. donovani in 100 μl were added. The amastigotes were taken from an axenic culture grown at pH 5.4. Four hours later, the medium containing free amastigote forms was removed and replaced by fresh medium. The next day the medium was replaced by medium with or without a serial drug dilution of seven 3-fold dilution steps covering a range from 30 to 0.04 μg/ml. Parasite growth in the presence of the drug was compared to control wells. After 96 h of incubation, the medium was removed and the slides fixed with methanol for 10 min followed by staining with a 10% Giemsa solution. Infected and non-infected macrophages were counted for the control cultures and those exposed to the serial drug dilutions. The infection rates were determined. The results were expressed as a percentage reduction in parasite burden compared to control wells, and the IC50 was calculated by linear regression analysis. The collection of mouse peritoneal macrophages was done at the Swiss Tropical and Public Health Institute (Basel) according to the rules and regulations for the protection of animal rights ("Tierschutzverordnung") of the Swiss "Bundesamt für Veterinärwesen".

[2] = system: T. b. rhodesiense strain STIB 900, trypomastigotes; test: In vitro activity against T. b. rhodesiense, serial drug dilution assay; conditions: for IC50: Trypanosoma brucei
Experimental: (§1) Drug stock solutions (10mg/ml) were in DMSO (100%). […] Selectivity index (SI) was calculated as IC50 L6 cells/IC50 parasite.

[3] = system: axenic amastigotes of L. donovani, strain MHOM-ET-67/L82; test: In vitro activity against L. donovani axenic amastigotes, serial drug dilution assay; format: cell-based, Leishmania donovani; conditions: Leishmania donovani
Experimental: as §1

[4] = system: T. cruzi, strain Tulahuen C4, intracellular amastigotes; test: microbe, parasite or virus in culture; conditions: Trypanosoma cruzi, TULAHUEN
Experimental: as §1

[5] = in vitro; conditions: rat
Experimental: as §1

[6] = system: P. falciparum strain K1; test: In vitro activity against P. falciparum, serial drug dilution assay; conditions: for IC50: Plasmodium falciparum; for Activity against P. falciparum (in words): in vitro
Experimental: as §1

[7] = Cytotoxicity on macrophages infected with L. donovani; format: cell-based, mouse; conditions: mouse
[8] = 96 h, read-out: IC50 L. don. intracell
[9] = axenic amastigotes, strain MHOM-ET-67/L82, means of two independent assays, read-out: IC50 L. don. axen.
[10] = macrophages infected with L. donovani, read-out: IC50 Cytotox. mac.inf.
[11] = L6 cells, IC50 Cytotox. L6, L6 cells, means of two independent assays
[12] = infected macrophages, read-out: Cytotox. mac.inf. IC50

Compound	IC50 [1, 8] [µM]	IC50 ([2]; read-out: IC50 T. b. rhod.) [µM]	IC50 [3, 9] [µM]	IC50 ([4]; read-out: IC50 T. cruzi) [µM]	IC50 ([5]; IC50 Cytotox. L6) [µM]	IC50 ([6]; K1, read-out: IC50 P. falc. K1) [nM]	IC50 at 96 h [7, 10] [µM]	also measured
OCCN(CCO)c1nc(N2CCCCC2)c2nc(N(CCO)CCO)nc(N3CCCCC3)c2n1 [Dipyridamole]	> 59.5	7.45	62	29.3	38.6	1300	> 59.5	Activity against P. falciparum (in words) [6]: selective activities
Clc1ccc(C(OCCN2CCCCC2)c2ccccc2)cc1 (centres unmarked) [Cloperastine]	> 30.3	4.91	265	9.46	–	870	–	IC50 [5, 11]: 43.4 µM; Activity against P. falciparum (in words) [6]: selective activities; selectivity ratio ([6]; rat, Selectivity index: IC50 Cytotoxicity L6/ IC50 P. falciparum): 50; MCC at 96 h ([7]; mouse peritoneal macrophages infected with L. donovani, read-out: IC50 Cytotox. mac.inf.): 90.9 µM
C[C@H]1c2cccc(O)c2C(=O)C2=C(O)[C@]3(O)C(=O)C(C(N)=O)=C(O)[C@@H](N(C)C)[C@@H]3[C@@H](O)[C@@H]21 [Doxycycline]	–	–	–	–	–	–	–	IC50 ([1]; read-out: L. don. intracell IC50): > 22.5 µM; IC50 ([2]; read-out: T. b. rhod. IC50): 63.7 µM; IC50 ([3]; L. donovani axenic amastigotes, read-out: L. don. axen. IC50): 24.1 µM; IC50 ([4]; read-out: T. cruzi IC50): 39.1 µM; IC50 ([5]; Cytotox. L6 IC50): 14.5 µM; IC50 ([6]; K1, read-out: P. falc. IC50): 4480 nM; MCC at 96 h [7, 12]: 67.5 µM
Clc1ccc2c(c1)C(N1CCNCC1)=Nc1ccccc1O2 [Amoxapine]	–	–	–	–	16.2	–	31.9	–
OCCN1CCN(CCCN2c3ccccc3Sc3ccc(C(F)(F)F)cc32)CC1 [Fluphenazine]	–	–	–	–	11.5	–	22.9	Activity against P. falciparum (in words) [6]: micromolar range
Cc1cccc(C)c1OCC(=O)N[C@@H](Cc1ccccc1)[C@@H](O)C[C@H](Cc1ccccc1)NC(=O)[C@H](C(C)C)N1CCCNC1=O [Lopinavir]	> 47.7	10.8	11.8	15.4	18.9	1920	> 47.7	–
Nc1nc2c(ncn2CCC(CO)CO)c(=O)[nH]1 [Penciclovir]	> 118	> 395	> 395	254	220	169000	> 118	–
Cc1ncc([N+](=O)[O-])n1CC(C)O (centres unmarked) [Secnidazole]	> 161	28.7	> 161	> 161	> 483	–	> 161	–
CNCCC(Oc1ccc(C(F)(F)F)cc1)c1ccccc1 (centres unmarked) [Fluoxetine]	–	–	–	–	15	–	–	Activity against P. falciparum (in words) [6]: micromolar range; MCC at 96 h [7, 10]: 32.3 µM
Nc1nc(N)nc(Nc2ccc([As]3SCC(CO)S3)cc2)n1 (centres unmarked) [Melarsoprol]	–	0.01	–	–	–	–	–	–
CCS(=O)(=O)CCn1c([N+](=O)[O-])cnc1C [Tinidazole]	> 81	16.6	> 81	> 81	> 243	–	> 81	Activity against T. b. rhodesiense (in words) ([2]; in vitro): inactive
O=C(Cn1ccnc1[N+](=O)[O-])NCc1ccccc1 [Benznidazole]	–	–	–	1.99	–	–	–	–
CCC(C)n1ncn(-c2ccc(N3CCN(c4ccc(OCC5COC(Cn6cncn6)(c6ccc(Cl)cc6Cl)O5)cc4)CC3)cc2)c1=O (centres unmarked) [Itraconazole]	> 1.42	8.53	2.42	0.004	1.11	1370	–	–
CCN(CC)CCOc1ccc(C(=C(Cl)c2ccccc2)c2ccccc2)cc1 [Clomiphene]	–	–	–	–	–	–	–	IC50 ([5]; Cytotox. L6 IC50): 13.1 µM; MCC at 96 h [7, 12]: 24.6 µM
CC(C)c1nc(CN(C)C(=O)N[C@H](C(=O)N[C@@H](Cc2ccccc2)C[C@H](O)[C@H](Cc2ccccc2)NC(=O)OCc2cncs2)C(C)C)cs1 [Ritonavir]	> 41.6	4.3	8.97	20.7	–	16200	–	–
Cn1c([N+](=O)[O-])cnc1N1CCN(S(C)(=O)=O)C1=O [Satranidazole]	> 104	18.7	10.4	19.1	–	–	–	IC50 [5, 11]: > 311 µM; IC50 at 96 h ([7]; mouse peritoneal macrophages infected with L. donovani, macrophages infected with L. donovani, read-out: IC50 Cytotox. mac.inf.): > 104 µM
Cc1ncc([N+](=O)[O-])n1CC(O)CCl (centres unmarked) [Ornidazole]	> 136	25.9	> 136	130	> 408	–	> 136	–
